Laboratory results reported in article PMC9557946, “Intermittent MEK inhibition for the treatment of metastatic uveal melanoma” (Frontiers in Oncology, 2022).
Where “and” joins values, the source holds several entries; their conditions need not be identical. Equal entries are not always repeated. Where two headings read alike, the source gives them in different places.

Assays:
uveal melanoma = test system: uveal melanoma; set-up: method as in PMID 22550165; details: ref [7], cited from earlier work
[1] = in vivo
Description: Non-compartmental analyses were performed on the data for day 1, 2, 15 and 17 using Winnonlin software (Phoenix Winnonlin 8.3.1.5014, Certara L.P., Princeton, NJ). […] Data were summarized per dose level and per occasion. Dose-exposure relationships were explored by plotting dose versus the various parameters. Accumulation was investigated using the AUC assessed at various days.

[2] = Phase Ib trial of intermittent selumetinib: adverse events, DLT and MTD; assay type: in vivo
Text: This was a multi-center, open-label, phase Ib study conducted at Columbia University Irving Medical Center (New York, NY), University of Texas MD Anderson Cancer Center (Houston, TX), and Memorial Sloan Kettering Cancer Center (New York, NY). […] Exploratory objectives included pharmacodynamic (PD) assessment of target inhibition of the MEK pathway.
The MTD was estimated using the time to event continual reassessment method (TITE-CRM) with a target DLT rate of 0.25 ([17]). TITE-CRM was used as it allows use of partial information before a complete follow-up is achieved and allows for a longer toxicity evaluation window beyond the first cycle to account for late onset toxicities. As a result, trials can be conducted in a continuous fashion. […] Based on prior clinical data, the estimated MTD prior to conduct of the trial was DL2.
Descriptive statistics were used to report baseline characteristics of the study population. The observed rate and estimated rate of DLT were reported for each dose level along with the 90% probability interval. The number and percentage of patients with adverse events were summarized taking the highest grade and reported by grade for AEs that were at least possibly related to treatment. AEs with at prevalence of least 10% were reported separately. The overall response rate (ORR) was defined as a confirmed complete response (CR) or partial response (PR) according to RECIST 1.1 criteria ([18]) and reported by dose level. […] PFS was measured from date of enrollment until the date of progression or death, whichever occurred first. OS was defined as the time from the date of registration to the date of death by any cause.
Toxicity was graded using National Cancer Institute Common Terminology Criteria for Adverse Events (CTCAE v. 4.0). For recurrent adverse events (AEs), the highest reported grade per event per patient was assessed. The DLT observation period was 8 weeks from the initiation of treatment.

[3] = related to study treatment, 29 patients, all dose levels

SMILES: Cn1cnc2c(F)c(Nc3ccc(Br)cc3Cl)c(C(=O)NOCCO)cc21 [selumetinib]
- median PFS (uveal melanoma; selumetinib 75 mg BID vs temozolomide or DTIC): 16 weeks
- patients achieving an objective radiographic response (uveal melanoma; selumetinib 75 mg BID): 14%
- AUC0-4h ([1]; human, 100 mg): 2903 ± 461 (6) h*ng/mL
- AUC0-8h ([1]; human, 100 mg): 4265 ± 628 (2) h*ng/mL
- CL/F ([1]; human, 100 mg): 20.9 ± 3.7 (2) L/h
- Cmax ([1]; human, 100 mg): 1453 ± 530 (6) ng/mL
- Tmax ([1]; human, 100 mg): 1.7 ± 0.5 (6) h
- t½ ([1]; human, 100 mg): 2.4 ± 0.3 (2) h
- AUC0-4h ([1]; human, 125 mg): 4270 ± 1470 (56) h*ng/mL
- AUC0-8h ([1]; human, 125 mg): 6042 ± 2210 (29) h*ng/mL
- CL/F ([1]; human, 125 mg): 18.7 ± 8.1 (26) L/h
- Cmax ([1]; human, 125 mg): 2115 ± 798 (56) ng/mL
- intra-patient coefficient of variation for AUC0-8h ([1]; human, 125 mg): 11.3%
- intra-patient coefficient of variation for Cmax ([1]; human, 125 mg): 25.3%
- t½ ([1]; human, 125 mg): 4.3 ± 5.7 (26) h
- AUC0-4h ([1]; human, 150 mg): 6073 ± 1540 (8) h*ng/mL
- AUC0-8h ([1]; human, 150 mg): 6683 ± 729 (4) h*ng/mL
- CL/F ([1]; human, 150 mg): 14.8 ± 7.6 (8) L/h
- Cmax ([1]; human, 150 mg): 3041 ± 1155 (8) ng/mL
- t½ ([1]; human, 150 mg): 7.9 ± 9.1 (3) h
- accumulation [1]: little to no accumulation
- increase of intermittent MTD over continuous dose MTD ([2]; 150 mg BID vs 75 mg BID): 100%
- patients requiring dose reduction for treatment-related toxicity ([2]; 29 patients, all dose levels): 21%
- patients who discontinued therapy due to toxicity ([2]; 29 patients, all dose levels): Five patients discontinued therapy due to toxicity
- patients with at least one treatment-related AE of any grade ([2]; 29 patients, all dose levels): All patients
- patients with grade 3 or higher treatment-related AE ([2]; 29 patients, all dose levels): 17%
- Observed DLTs ([2]; All dose levels, 29 patients): 5
- estimated probability of toxicity at the MTD ([2]; DL3 150 mg BID, 90% probability interval 16%-44%): 29%
- DLT Information ([2]; Dose Level 2 (125 mg BID)): • Grade 3 Hypertension • Grade 3 Abdominal pain
- Observed DLTs ([2]; Dose Level 2 (125 mg BID), 20 patients): 2/20 and 2
- DLT Information ([2]; Dose Level 3 (150 mg BID)): • Grade 3 Abdominal pain • Grade 3 AST elevation
- Observed DLTs ([2]; Dose Level 3 (150 mg BID), 5 patients): 2/5 and 2
- DLT Information ([2]; Dose Level 4 (175 mg BID)): • Grade 3 AST elevation
- Observed DLTs ([2]; Dose Level 4 (175 mg BID), 1 patient): 1/1 and 1
- most common grade 3 AE ([2]; all dose levels): abdominal pain
- treatment discontinuation associated with liver enzyme elevation ([2]; all dose levels): 2 n
- treatment discontinuation associated with retinopathy ([2]; all dose levels): 2 n
- patients who died within 30 days of treatment discontinuation ([2]; all from progression of disease): 4 patients
- Abdominal pain, All Grades [2, 3]: 12 (41%) patients (%)
- Abdominal pain, Grade 1 [2, 3]: 5 (17) n(%)
- Abdominal pain, Grade 2 [2, 3]: 4 (14) n(%)
- Abdominal pain, Grade 3 [2, 3]: 3 (10) n(%)
- Abdominal pain, Grade 4 [2, 3]: 0 n(%)
- Anemia, All Grades [2, 3]: 13 (45%) patients (%)
- Anemia, Grade 1 [2, 3]: 11 (38) n(%)
- Anemia, Grade 2 [2, 3]: 1 (3) n(%)
- Anemia, Grade 3 [2, 3]: 0 n(%)
- Anemia, Grade 4 [2, 3]: 1 (3) n(%)
- Constipation, All Grades [2, 3]: 10 (34%) patients (%)
- Constipation, Grade 1 [2, 3]: 8 (28) n(%)
- Constipation, Grade 2 [2, 3]: 2 (7) n(%)
- Constipation, Grade 3 [2, 3]: 0 n(%)
- Constipation, Grade 4 [2, 3]: 0 n(%)
- Decreased WBC, All Grades [2, 3]: 8 (28%) patients (%)
- Decreased WBC, Grade 1 [2, 3]: 5 (17) n(%)
- Decreased WBC, Grade 2 [2, 3]: 2 (7) n(%)
- Decreased WBC, Grade 3 [2, 3]: 1 (3) n(%)
- Decreased WBC, Grade 4 [2, 3]: 0 n(%)
- Diarrhea, All Grades [2, 3]: 16 (55%) patients (%)
- Diarrhea, Grade 1 [2, 3]: 14 (48) n(%)
- Diarrhea, Grade 2 [2, 3]: 2 (7) n(%)
- Diarrhea, Grade 3 [2, 3]: 0 n(%)
- Diarrhea, Grade 4 [2, 3]: 0 n(%)
- Fatigue, All Grades [2, 3]: 25 (86%) patients (%)
- Fatigue, Grade 1 [2, 3]: 19 (66) n(%)
- Fatigue, Grade 2 [2, 3]: 6 (21) n(%)
- Fatigue, Grade 3 [2, 3]: 0 n(%)
- Fatigue, Grade 4 [2, 3]: 0 n(%)
- Hypertension, All Grades [2, 3]: 14 (48%) patients (%)
- Hypertension, Grade 1 [2, 3]: 3 (10) n(%)
- Hypertension, Grade 2 [2, 3]: 9 (31) n(%)
- Hypertension, Grade 3 [2, 3]: 2 (7) n(%)
- Hypertension, Grade 4 [2, 3]: 0 n(%)
- Increased AST/ALT, All Grades [2, 3]: 12 (41%) patients (%)
- Increased AST/ALT, Grade 1 [2, 3]: 10 (34) n(%)
- Increased AST/ALT, Grade 2 [2, 3]: 0 n(%)
- Increased AST/ALT, Grade 3 [2, 3]: 2 (7) n(%)
- Increased AST/ALT, Grade 4 [2, 3]: 0 n(%)
- Nausea, All Grades [2, 3]: 17 (59%) patients (%)
- Nausea, Grade 1 [2, 3]: 12 (41) n(%)
- Nausea, Grade 2 [2, 3]: 5 (17) n(%)
- Nausea, Grade 3 [2, 3]: 0 n(%)
- Nausea, Grade 4 [2, 3]: 0 n(%)
- Pruritus, Grade 1 [2, 3]: 10 (34) n(%)
- Pruritus, Grade 2 [2, 3]: 0 n(%)
- Pruritus, Grade 3 [2, 3]: 0 n(%)
- Pruritus, Grade 4 [2, 3]: 0 n(%)
- Rash acneiform, All Grades [2, 3]: 19 (65%) patients (%)
- Rash acneiform, Grade 1 [2, 3]: 14 (48) n(%)
- Rash acneiform, Grade 2 [2, 3]: 5 (17) n(%)
- Rash acneiform, Grade 3 [2, 3]: 0 n(%)
- Rash acneiform, Grade 4 [2, 3]: 0 n(%)
- Retinopathy/Blurred Vision, All Grades [2, 3]: 8 (28%) patients (%)
- Retinopathy/Blurred Vision, Grade 1 [2, 3]: 8 (28) n(%)
- Retinopathy/Blurred Vision, Grade 2 [2, 3]: 0 n(%)
- Retinopathy/Blurred Vision, Grade 3 [2, 3]: 0 n(%)
- Retinopathy/Blurred Vision, Grade 4 [2, 3]: 0 n(%)
- Vomiting, All Grades [2, 3]: 8 (28%) patients (%)
- Vomiting, Grade 1 [2, 3]: 5 (17) n(%)
- Vomiting, Grade 2 [2, 3]: 3 (10) n(%)
- Vomiting, Grade 3 [2, 3]: 0 n(%)
- Vomiting, Grade 4 [2, 3]: 0 n(%)
